Results: US20250205344A1, “2,4-DIOXOTETRAHYDROPYRIMIDINYL DERATIVES AS DEGRONS IN PROTACS” (GLAXOSMITHKLINE INTELLECTUAL PROPERTY DEVELOPMENT LIMITED, priority 2022, published 2025)
Where a name gives a salt, the structure may show the parent alone.

target: T1, Androgen Receptor (Homo sapiens, UniProt P10275, T878A); test: Androgen Receptor Degradation Assay (Nano-Glo HiBiT); type: cell-based; settings: LNCaP, 18 h, HiBiT-tagged AR in human LnCaP cells, read-out: mean asymptote max
T1 construct: the AR gene was modified, using CRISPR/Cas9 editing, so the expressed AR protein included an 11 amino acid HiBiT tag; endogenous in cells; host or cells: clonal LnCaP-derived line, AR gene edited by CRISPR/Cas9
Method in brief: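 LnCaP cells with CRISPR-knocked-in N-terminal HiBiT-tagged AR (10,000/well) treated 18 h at 37 °C with PROTACs over 11 threefold concentrations; lytic HiBiT luminescence normalised to DMSO (0%) and cell-free (100%) controls. Relative DC50 = 4-parameter fit inflection; absolute DC50 = 50% degradation interpolation; Dmax = maximum observed degradation.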

T1 sequence (P10275 whole entry T878A): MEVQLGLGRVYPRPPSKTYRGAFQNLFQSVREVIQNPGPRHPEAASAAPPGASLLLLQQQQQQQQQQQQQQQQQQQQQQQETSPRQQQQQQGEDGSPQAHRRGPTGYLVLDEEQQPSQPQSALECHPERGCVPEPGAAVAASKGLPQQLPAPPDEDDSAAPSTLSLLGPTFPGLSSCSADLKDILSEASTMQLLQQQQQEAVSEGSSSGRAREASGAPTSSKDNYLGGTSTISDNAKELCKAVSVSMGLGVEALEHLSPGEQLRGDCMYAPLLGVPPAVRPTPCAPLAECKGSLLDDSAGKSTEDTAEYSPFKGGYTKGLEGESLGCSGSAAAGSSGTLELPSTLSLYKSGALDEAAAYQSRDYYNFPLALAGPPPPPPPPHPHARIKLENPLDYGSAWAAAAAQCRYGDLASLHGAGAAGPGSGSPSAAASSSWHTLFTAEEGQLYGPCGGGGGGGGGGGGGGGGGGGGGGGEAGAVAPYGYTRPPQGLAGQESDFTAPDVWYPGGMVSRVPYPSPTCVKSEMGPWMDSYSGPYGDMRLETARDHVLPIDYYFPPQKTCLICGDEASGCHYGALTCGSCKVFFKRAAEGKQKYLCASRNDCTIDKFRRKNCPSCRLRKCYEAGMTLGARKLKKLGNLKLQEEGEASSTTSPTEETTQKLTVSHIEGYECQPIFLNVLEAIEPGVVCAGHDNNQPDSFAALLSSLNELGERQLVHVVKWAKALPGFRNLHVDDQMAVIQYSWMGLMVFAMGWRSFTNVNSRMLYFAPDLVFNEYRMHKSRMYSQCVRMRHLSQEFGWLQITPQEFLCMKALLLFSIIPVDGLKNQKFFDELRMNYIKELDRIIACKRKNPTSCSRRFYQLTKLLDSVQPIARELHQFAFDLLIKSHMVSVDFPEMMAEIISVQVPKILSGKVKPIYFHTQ
T1 sequence (Q96SW2 whole entry partner): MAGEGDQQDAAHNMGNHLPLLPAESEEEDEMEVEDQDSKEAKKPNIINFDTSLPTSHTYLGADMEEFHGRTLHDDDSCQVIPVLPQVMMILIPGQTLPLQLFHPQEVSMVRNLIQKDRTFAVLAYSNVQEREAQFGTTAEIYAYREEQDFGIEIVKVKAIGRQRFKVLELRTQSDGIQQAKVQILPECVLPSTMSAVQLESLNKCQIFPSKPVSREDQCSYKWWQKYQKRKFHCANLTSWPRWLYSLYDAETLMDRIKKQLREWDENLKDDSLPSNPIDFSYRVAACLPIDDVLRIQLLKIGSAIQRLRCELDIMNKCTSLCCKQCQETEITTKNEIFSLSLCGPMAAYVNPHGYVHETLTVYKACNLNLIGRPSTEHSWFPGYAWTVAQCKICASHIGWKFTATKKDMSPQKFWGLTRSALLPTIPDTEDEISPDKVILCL
T1 sequence (Q16531 whole entry partner): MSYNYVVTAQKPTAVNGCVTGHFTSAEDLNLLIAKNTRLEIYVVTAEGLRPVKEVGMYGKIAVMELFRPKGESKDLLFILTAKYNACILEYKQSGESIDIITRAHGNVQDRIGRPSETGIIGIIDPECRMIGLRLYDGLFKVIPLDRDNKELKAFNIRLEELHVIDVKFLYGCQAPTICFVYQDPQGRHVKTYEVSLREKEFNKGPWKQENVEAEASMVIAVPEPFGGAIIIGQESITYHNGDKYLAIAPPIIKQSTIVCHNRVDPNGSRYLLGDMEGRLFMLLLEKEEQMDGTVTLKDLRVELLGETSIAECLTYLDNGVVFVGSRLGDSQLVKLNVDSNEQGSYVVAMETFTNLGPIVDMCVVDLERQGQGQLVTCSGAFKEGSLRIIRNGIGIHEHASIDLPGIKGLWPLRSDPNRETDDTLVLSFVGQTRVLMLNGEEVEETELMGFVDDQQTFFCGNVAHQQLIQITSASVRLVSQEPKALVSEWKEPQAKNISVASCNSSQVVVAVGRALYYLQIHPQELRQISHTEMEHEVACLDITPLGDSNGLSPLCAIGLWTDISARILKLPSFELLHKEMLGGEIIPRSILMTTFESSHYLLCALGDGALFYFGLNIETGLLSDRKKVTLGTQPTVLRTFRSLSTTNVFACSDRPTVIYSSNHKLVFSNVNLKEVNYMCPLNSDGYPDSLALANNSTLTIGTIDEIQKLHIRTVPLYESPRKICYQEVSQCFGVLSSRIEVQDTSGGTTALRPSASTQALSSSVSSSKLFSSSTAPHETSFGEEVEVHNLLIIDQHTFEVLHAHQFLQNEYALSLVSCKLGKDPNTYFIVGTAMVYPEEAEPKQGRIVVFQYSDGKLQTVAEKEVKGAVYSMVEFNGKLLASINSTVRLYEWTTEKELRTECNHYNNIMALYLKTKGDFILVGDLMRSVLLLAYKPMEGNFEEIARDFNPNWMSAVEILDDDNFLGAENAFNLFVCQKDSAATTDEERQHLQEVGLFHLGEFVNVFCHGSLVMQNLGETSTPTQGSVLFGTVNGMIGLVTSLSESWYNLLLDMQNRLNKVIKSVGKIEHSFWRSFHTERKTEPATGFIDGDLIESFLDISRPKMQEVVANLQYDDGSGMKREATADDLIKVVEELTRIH

| Compound | Dmax [%] |
| --- | --- |
| N#Cc1ccc(O[C@H]2CC[C@H](NC(=O)c3ccc(N4CCC(CN5CC(n6ccc7c(N8CCC(=O)NC8=O)cccc76)C5)CC4)nn3)CC2)cc1Cl [EAR131, N-((1r,4r)-4-(3-chloro-4-cyanophenoxy)cyclohexyl)-6-(4-((3-(4-(2,4-dioxotetrahydropyrimidin-1(2H)-yl)-1H-indol-1-yl)azetidin-1-yl)methyl)piperidin-1-yl)pyridazine-3-carboxamide] | ≥ 50 |
| CC(C)n1ccc2c(N3CCC(=O)NC3=O)cc(C(=O)N(C)CC3CCN(CCC4CCN(c5ccc(N6C(=S)N(c7ccc(C#N)c(C(F)(F)F)c7)C(=O)C6(C)C)cc5)CC4)CC3)cc21 [EAR91, N-((1-(2-(1-(4-(3-(4-Cyano-3-(trifluoromethyl)phenyl)-5,5-dimethyl-4-oxo-2-thioxoimidazolidin-1-yl)phenyl)piperidin-4-yl)ethyl)piperidin-4-yl)methyl)-4-(2,4-dioxotetrahydropyrimidin-1(2H)-yl)-1-isopropyl-N-methyl-1H-indole-6-carboxamide] | ≥ 50 |
| N#Cc1ccc(O[C@H]2CC[C@H](NC(=O)c3ccc(N4CCC(CN5CCC(n6ncc7c(N8CCC(=O)NC8=O)cc(C(F)(F)F)cc76)CC5)CC4)nn3)CC2)cc1Cl [EAR161, N-((1r,4r)-4-(3-Chloro-4-cyanophenoxy)cyclohexyl)-6-(4-((4-(4-(2,4-dioxotetrahydropyrimidin-1(2H)-yl)-6-(trifluoromethyl)-1H-indazol-1-yl)piperidin-1-yl)methyl)piperidin-1-yl)pyridazine-3-carboxamide] | ≥ 50 |
| N#Cc1ccc(O[C@H]2CC[C@H](NC(=O)c3ccc(N4CCC(CN5CCC(n6ncc7c(N8CCC(=O)NC8=O)cc(F)cc76)CC5)CC4)nn3)CC2)cc1Cl [EAR33, N-((1r,4r)-4-(3-Chloro-4-cyanophenoxy)cyclohexyl)-6-(4-((4-(4-(2,4-dioxotetrahydropyrimidin-1(2H)-yl)-6-fluoro-1H-indazol-1-yl)piperidin-1-yl)methyl)piperidin-1-yl)pyridazine-3-carboxamide] | ≥ 50 |
| N#Cc1ccc(O[C@H]2CC[C@H](NC(=O)c3ccc(N4CCC(CN5CCC(Cn6ccc7c(N8CCC(=O)NC8=O)cccc76)CC5)CC4)nn3)CC2)cc1Cl [EAR26, N-((1r,4r)-4-(3-Chloro-4-cyanophenoxy)cyclohexyl)-6-(4-((4-((4-(2,4-dioxotetrahydropyrimidin-1(2H)-yl)-1H-indol-1-yl)methyl)piperidin-1-yl)methyl)piperidin-1-yl)pyridazine-3-carboxamide hydrochloride] | ≥ 50 |
| N#Cc1ccc(O[C@H]2CC[C@H](NC(=O)c3ccc(N4CCC(CN5CCC6(CC5)CC(n5ccc7c(N8CCC(=O)NC8=O)cccc75)C6)CC4)nn3)CC2)cc1Cl [EAR185, N-((1r,4r)-4-(3-Chloro-4-cyanophenoxy)cyclohexyl)-6-(4-((2-(4-(2,4-dioxotetrahydropyrimidin-1(2H)-yl)-1H-indol-1-yl)-7-azaspiro[3.5]nonan-7-yl)methyl)piperidin-1-yl)pyridazine-3-carboxamide hydrochloride] | ≥ 50 |
| N#Cc1ccc(O[C@H]2CC[C@H](NC(=O)c3cnc(N4CCC(CN5CCC(n6ncc7c(N8CCC(=O)NC8=O)cccc76)CC5)CC4)cn3)CC2)cc1Cl [EAR39, N-((1r,4r)-4-(3-Chloro-4-cyanophenoxy)cyclohexyl)-5-(4-((4-(4-(2,4-dioxotetrahydropyrimidin-1(2H)-yl)-1H-indazol-1-yl)piperidin-1-yl)methyl)piperidin-1-yl)pyrazine-2-carboxamide hydrochloride] | ≥ 50 |
| CN(C)C(=O)c1cc(N2CCC(=O)NC2=O)c2ccn(C3CCN(CC4CCN(c5ccc(C(=O)N[C@H]6CC[C@H](Oc7ccc(C#N)c(Cl)c7)CC6)nn5)CC4)CC3)c2c1 [EAR35, 1-(1-((1-(6-(((1r,4r)-4-(3-Chloro-4-cyanophenoxy)cyclohexyl)carbamoyl)pyridazin-3-yl)piperidin-4-yl)methyl)piperidin-4-yl)-4-(2,4-dioxotetrahydropyrimidin-1(2H)-yl)-N,N-dimethyl-1H-indole-6-carboxamide] | ≥ 50 |
| CC(C)n1ccc2c(N3CCC(=O)NC3=O)cc(C(=O)N3CCN(CC4CCN(c5ccc(C(=O)N[C@H]6CC[C@H](Oc7ccc(C#N)c(Cl)c7)CC6)cn5)CC4)CC3)cc21 [EAR80, N-((1r,4r)-4-(3-Chloro-4-cyanophenoxy)cyclohexyl)-6-(4-((4-(4-(2,4-dioxotetrahydropyrimidin-1(2H)-yl)-1-isopropyl-1H-indole-6-carbonyl)piperazin-1-yl)methyl)piperidin-1-yl)nicotinamide] | ≥ 50 |
| CC1(C)C(=O)N(c2ccc(C#N)c(C(F)(F)F)c2)C(=S)N1c1ccc(N2CCC(CCN3CCC(n4ccc5c(N6CCC(=O)NC6=O)cncc54)CC3)CC2)cc1 [EAR100, 4-(3-(4-(4-(2-(4-(4-(2,4-Dioxotetrahydropyrimidin-1(2H)-yl)-1H-pyrrolo[2,3-c]pyridin-1-yl)piperidin-1-yl)ethyl)piperidin-1-yl)phenyl)-4,4-dimethyl-5-oxo-2-thioxoimidazolidin-1-yl)-2-(trifluoromethyl)benzonitrile formate] | ≥ 50 |
| CC1(C)CCN(c2ccc(C(=O)N[C@H]3CC[C@H](Oc4ccc(C#N)c(Cl)c4)CC3)nn2)CC1CN1CCC(n2ncc3c(N4CCC(=O)NC4=O)cccc32)CC1 (some centres unmarked) [EAR222, N-((1r,4r)-4-(3-chloro-4-cyanophenoxy)cyclohexyl)-6-(3-((4-(4-(2,4-dioxotetrahydropyrimidin-1(2H)-yl)-1H-indazol-1-yl)piperidin-1-yl)methyl)-4,4-dimethylpiperidin-1-yl)pyridazine-3-carboxamide] | ≥ 50 |
| CC1CN(c2ccc(C(=O)N[C@H]3CC[C@H](Oc4ccc(C#N)c(Cl)c4)CC3)nn2)CCC1CN1CCC(n2ncc3c(N4CCC(=O)NC4=O)cccc32)CC1 (some centres unmarked) [EAR234, N-((1r,4r)-4-(3-chloro-4-cyanophenoxy)cyclohexyl)-6-(4-((4-(4-(2,4-dioxotetrahydropyrimidin-1(2H)-yl)-1H-indazol-1-yl)piperidin-1-yl)methyl)-3-methylpiperidin-1-yl)pyridazine-3-carboxamide] | ≥ 50 |
| CC1(CN2CCC(n3ncc4c(N5CCC(=O)NC5=O)cccc43)CC2)CN(c2ccc(C(=O)N[C@H]3CC[C@H](Oc4ccc(C#N)c(Cl)c4)CC3)nn2)C1 [EAR240, N-((1r,4r)-4-(3-chloro-4-cyanophenoxy)cyclohexyl)-6-(3-((4-(4-(2,4-dioxotetrahydropyrimidin-1(2H)-yl)-1H-indazol-1-yl)piperidin-1-yl)methyl)-3-methylazetidin-1-yl)pyridazine-3-carboxamide] | ≥ 50 |
| N#Cc1ccc(O[C@H]2CC[C@H](NC(=O)c3ccc(N4CC5(CCC5CN5CCC(n6ncc7c(N8CCC(=O)NC8=O)cccc76)CC5)C4)nn3)CC2)cc1Cl (some centres unmarked) [EAR236, N-((1r,4r)-4-(3-chloro-4-cyanophenoxy)cyclohexyl)-6-(5-((4-(4-(2,4-dioxotetrahydropyrimidin-1(2H)-yl)-1H-indazol-1-yl)piperidin-1-yl)methyl)-2-azaspiro[3.3]heptan-2-yl)pyridazine-3-carboxamide] | ≥ 50 |
| CC1(C)[C@H](NC(=O)c2ccc(N3CCC(CN4CCC(n5ccc6c(N7CCC(=O)NC7=O)nccc65)CC4)CC3)nc2)C(C)(C)[C@H]1Oc1cnc(C#N)c(Cl)c1 [EAR259, N-((1r,3r)-3-((5-Chloro-6-cyanopyridin-3-yl)oxy)-2,2,4,4-tetramethylcyclobutyl)-6-(4-((4-(4-(2,4-dioxotetrahydropyrimidin-1(2H)-yl)-1H-pyrrolo[3,2-c]pyridin-1-yl)piperidin-1-yl)methyl)piperidin-1-yl)nicotinamide] | ≥ 50 |
| N#Cc1ccc(O[C@H]2CC[C@H](NC(=O)c3ccc(N4CCC(CN5CCC(F)(Cn6ccc7c(N8CCC(=O)NC8=O)cccc76)CC5)CC4)nn3)CC2)cc1Cl [EAR168, N-((1r,4r)-4-(3-Chloro-4-cyanophenoxy)cyclohexyl)-6-(4-((4-((4-(2,4-dioxotetrahydropyrimidin-1(2H)-yl)-1H-indol-1-yl)methyl)-4-fluoropiperidin-1-yl)methyl)piperidin-1-yl)pyridazine-3-carboxamide] | ≥ 50 |
| N#Cc1ccc(O[C@H]2CC[C@H](NC(=O)c3ccc(N4CCC[C@H](CN5CCC(n6ncc7c(N8CCC(=O)NC8=O)cccc76)CC5)C4)nn3)CC2)cc1Cl (single isomer, unassigned) [EAR136] | ≥ 50 |
| N#Cc1ccc(O[C@H]2CC[C@H](NC(=O)c3ccc(N4CCOC(CCN5CCC(n6ncc7c(N8CCC(=O)NC8=O)cccc76)CC5)C4)nn3)CC2)cc1Cl (some centres unmarked) [EAR243, N-((1r,4r)-4-(3-chloro-4-cyanophenoxy)cyclohexyl)-6-(2-(2-(4-(4-(2,4-dioxotetrahydropyrimidin-1(2H)-yl)-1H-indazol-1-yl)piperidin-1-yl)ethyl)morpholino)pyridazine-3-carboxamide] | ≥ 50 |
| N#Cc1ccc(O[C@H]2CC[C@H](NC(=O)c3ccc(N4CCC(CCN5CCC(n6ccc7c(N8CCC(=O)NC8=O)cccc76)CC5)CC4)nn3)CC2)cc1Cl [EAR57, N-((1r,4r)-4-(3-Chloro-4-cyanophenoxy)cyclohexyl)-6-(4-(2-(4-(4-(2,4-dioxotetrahydropyrimidin-1(2H)-yl)-1H-indol-1-yl)piperidin-1-yl)ethyl)piperidin-1-yl)pyridazine-3-carboxamide hydrochloride] | ≥ 50 |
| N#Cc1ccc(O[C@H]2CC[C@H](NC(=O)c3ccc(N4CCC(CN5CCC(n6ccc7c(N8CCC(=O)NC8=O)cccc76)CC5)CC4)cc3)CC2)cc1Cl [EAR169, N-((1r,4r)-4-(3-chloro-4-cyanophenoxy)cyclohexyl)-4-(4-((4-(4-(2,4-dioxotetrahydropyrimidin-1(2H)-yl)-1H-indol-1-yl)piperidin-1-yl)methyl)piperidin-1-yl)benzamide] | ≥ 50 |
